Reference: ChEMBL document CHEMBL1158673, “Bioactive kaurane diterpenoids from Annona glabra” (J Nat Prod, 1998)
Values after ≈ are worked out from the molar mass of the structure shown. Active and inactive are the calls of the source. The rule behind the calls is not given here.

Key:
[1] = tested on: Human immunodeficiency virus; experiment: Antiviral activity against HIV infected in human H9 cells assessed as viral replication; format: functional, organism-based; settings: for EC50: Human immunodeficiency virus 1, H9
[2] = tested on: H9; experiment: Cytotoxicity against human H9 cells; format: cell-based
[3] = Therapeutic index, ratio of IC50 for human H9 cells to EC50 for HIV; format: cell-based; settings: for therapeutic index: H9; for Activity: human, h9
[4] = tested on: Human immunodeficiency virus; experiment: Inhibition of HIV reverse transcriptase at 33 ug/mL by scintillation counting

EC50 [1] [µg/mL] | inhibition [4] [%] | Structure (SMILES) | IC50 [2] [µg/mL] | therapeutic index [3] | Activity [1] | Activity [3]
24 (≈ 78.8 µM) | – | CC1(C)CCC[C@]2(C)[C@@H]1CC[C@@]13C[C@H](CC[C@H]12)[C@H](C(=O)O)C3 | 32 (≈ 105 µM) | 1.3 | – | –
– | 14 | C[C@@]12CCC[C@@](C)(C=O)[C@H]1CC[C@@]13C[C@H](CC[C@H]12)[C@@H](C(=O)O)C3 | – | – | – | –
– | 46 | C[C@@]12CCC[C@@](C)(C(=O)O)[C@H]1CC[C@@]13C[C@H](CC[C@H]12)[C@@](O)(CO)C3 | – | – | – | –
– | 1 | C=C1C[C@@]23CC[C@H]4[C@@](C)(CCC[C@@]4(C)C(=O)O)[C@@H]2CC[C@@H]1C3 | – | – | – | –
– | 7 | C=C1C[C@@]23CC[C@@H]4[C@](C)(CO)CCC[C@@]4(C)[C@@H]2CC[C@H]1C3 | – | – | – | –

Further lines, the compound ahead of its results:

Structure (SMILES) | EC50 [1] [µg/mL] | inhibition [4] [%] | IC50 [2] [µg/mL] | therapeutic index [3] | Activity [1] | Activity [3]
Cc1cn([C@H]2C[C@H](N=[N+]=[N-])[C@@H](CO)O2)c(=O)[nH]c1=O [ZIDOVUDINE] | 0.01 (≈ 0.0374 µM) | – | – | 50000 | – | –
COC(=O)[C@]1(OC(C)=O)C[C@@]23CC[C@H]4[C@@](C)(CCC[C@@]4(C)C=O)[C@@H]2CC[C@H]1C3 [ANNOGLABASIN A] | 10 (≈ 25.6 µM) | – | 15 (≈ 38.4 µM) | 1.5 | – | –
CC(=O)OC[C@]1(C)CCC[C@]2(C)[C@@H]1CC[C@@]13C[C@H](CC[C@H]12)[C@@H](C(=O)O)C3 [ANNOGLABASIN B] | – | – | 40 (≈ 110 µM) | – | inactive | Not Active
CC1(C)CCC[C@]2(C)[C@@H]1CC[C@@]13C[C@H](CC[C@H]12)[C@@H](C(=O)O)C3 | – | – | 40 (≈ 131 µM) | – | inactive | Not Active
COC(=O)[C@H]1C[C@@]23CC[C@H]4[C@@](C)(CCC[C@@]4(C)C=O)[C@@H]2CC[C@H]1C3 | 5 (≈ 15 µM) | – | 20 (≈ 60.2 µM) | 4 | – | –
CC(=O)OC[C@]1(O)C[C@@]23CC[C@H]4[C@@](C)(CCC[C@@]4(C)C(=O)O)[C@@H]2CC[C@H]1C3 | 85 (≈ 225 µM) | – | 65 (≈ 172 µM) | 0.8 | – | –
